Like-named read-outs stand apart in the source and are kept apart here.
Assays:
MKN45 cells = assay: MKN45 cell proliferation assay (CellTiter-Glo); format: cell-based; conditions: MKN45 cell line, 3 days incubation, at least duplicate experiments, read-out: Prolif. IC50
Method in brief: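 MKN45 cells (5000/well, RPMI + 10% FCS) plated overnight, then exposed to 8-point dilution series, typically 10 μM to 0.6 nM, in 0.1% DMSO for 3 days at 37 °C. CellTiter-Glo luminescence as % of DMSO control; IC50 from four-parameter fit, at least duplicate experiments.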

c-Met = target: T1, c-Met (Homo sapiens, UniProt P08581); assay: c-Met kinase assay (Invitrogen Z′-LYTE kinase assay platform); format: biochemical; conditions: Z′-LYTE kinase assay at Invitrogen, ATP concentration of 100 μM
T1 construct: purchased Invitrogen
T1 sequence (P08581 25-1390): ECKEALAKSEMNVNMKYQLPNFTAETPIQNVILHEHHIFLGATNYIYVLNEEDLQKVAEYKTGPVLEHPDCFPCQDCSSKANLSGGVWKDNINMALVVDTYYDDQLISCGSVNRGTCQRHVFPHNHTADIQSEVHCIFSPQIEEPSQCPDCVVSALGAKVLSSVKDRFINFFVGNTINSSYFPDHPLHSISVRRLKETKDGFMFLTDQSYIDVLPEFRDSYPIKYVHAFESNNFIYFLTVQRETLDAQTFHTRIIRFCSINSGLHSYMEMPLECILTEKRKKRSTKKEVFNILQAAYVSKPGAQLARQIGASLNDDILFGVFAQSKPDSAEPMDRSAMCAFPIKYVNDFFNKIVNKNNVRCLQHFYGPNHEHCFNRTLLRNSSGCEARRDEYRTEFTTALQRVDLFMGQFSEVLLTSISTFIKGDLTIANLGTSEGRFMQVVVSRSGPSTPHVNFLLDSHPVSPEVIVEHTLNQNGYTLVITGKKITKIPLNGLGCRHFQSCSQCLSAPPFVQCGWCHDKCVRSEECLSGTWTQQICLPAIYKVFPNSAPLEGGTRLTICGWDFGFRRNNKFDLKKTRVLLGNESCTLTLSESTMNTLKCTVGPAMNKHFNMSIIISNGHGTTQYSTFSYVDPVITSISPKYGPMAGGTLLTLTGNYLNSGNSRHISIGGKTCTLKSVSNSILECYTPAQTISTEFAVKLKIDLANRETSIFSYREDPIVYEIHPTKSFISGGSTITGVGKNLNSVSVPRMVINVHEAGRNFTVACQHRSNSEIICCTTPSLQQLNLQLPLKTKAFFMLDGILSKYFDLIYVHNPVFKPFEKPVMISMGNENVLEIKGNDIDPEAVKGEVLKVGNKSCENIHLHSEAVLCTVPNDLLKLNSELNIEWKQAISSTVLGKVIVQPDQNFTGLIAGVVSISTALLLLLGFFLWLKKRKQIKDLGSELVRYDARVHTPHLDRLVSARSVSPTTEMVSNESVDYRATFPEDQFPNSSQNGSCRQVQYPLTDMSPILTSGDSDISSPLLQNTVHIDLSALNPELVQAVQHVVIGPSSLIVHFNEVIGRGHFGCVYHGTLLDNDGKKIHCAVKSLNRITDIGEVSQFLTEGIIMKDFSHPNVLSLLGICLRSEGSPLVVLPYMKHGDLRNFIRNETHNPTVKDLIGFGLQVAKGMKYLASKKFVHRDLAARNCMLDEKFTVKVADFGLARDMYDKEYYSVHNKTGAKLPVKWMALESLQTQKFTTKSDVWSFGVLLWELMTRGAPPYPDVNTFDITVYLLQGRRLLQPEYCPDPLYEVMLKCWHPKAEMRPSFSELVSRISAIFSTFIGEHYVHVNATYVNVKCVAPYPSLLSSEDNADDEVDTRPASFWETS
Method: (§1) The activities of exemplary compounds of the present invention against Ron and c-Met determined at Invitrogen using the Z′-LYTE™ kinase assay platform are shown in Table 1: A, IC50≦0.1 μM; B, 0.1 μM<IC50≦1 μM; C, 1 μM<IC50≦10 μM; D, IC50>10 μM. The assays were conducted at an ATP concentration of 100 μM. The Example # of Table 1 corresponds to the compound example number as illustrated in the Examples section.

phosphorylated c-MET = target: T2, phosphorylated c-MET (Homo sapiens, UniProt P08581); assay: c-MET cell mechanistic assay (phosphorylated c-MET in MKN45 cells); format: cell-based; conditions: MKN45 cell line, four hours incubation, phosphorylated c-MET levels, at least duplicate experiments; read-out: Met mech IC50
T2 construct: endogenous in cells; host or cells: MKN45
T2 sequence (P08581 25-1390): as above
Method in brief: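 MKN45 cells were treated 4 h at 37 °C with a 6-point dilution series (typically 10 μM to 3 nM; final 0.5% DMSO). Phospho-c-MET (pY1230/1234/1235) in lysates was measured by capture ELISA with HRP read-out at 450 nm. IC50 came from a four-parameter fit of percent of DMSO control.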

Ron = target: T3, Ron (Homo sapiens, UniProt Q04912); assay: Ron kinase assay (Invitrogen Z′-LYTE kinase assay platform); format: biochemical; conditions: Z′-LYTE kinase assay at Invitrogen, ATP concentration of 100 μM
T3 construct: purchased Invitrogen
T3 sequence (Q04912 25-1400): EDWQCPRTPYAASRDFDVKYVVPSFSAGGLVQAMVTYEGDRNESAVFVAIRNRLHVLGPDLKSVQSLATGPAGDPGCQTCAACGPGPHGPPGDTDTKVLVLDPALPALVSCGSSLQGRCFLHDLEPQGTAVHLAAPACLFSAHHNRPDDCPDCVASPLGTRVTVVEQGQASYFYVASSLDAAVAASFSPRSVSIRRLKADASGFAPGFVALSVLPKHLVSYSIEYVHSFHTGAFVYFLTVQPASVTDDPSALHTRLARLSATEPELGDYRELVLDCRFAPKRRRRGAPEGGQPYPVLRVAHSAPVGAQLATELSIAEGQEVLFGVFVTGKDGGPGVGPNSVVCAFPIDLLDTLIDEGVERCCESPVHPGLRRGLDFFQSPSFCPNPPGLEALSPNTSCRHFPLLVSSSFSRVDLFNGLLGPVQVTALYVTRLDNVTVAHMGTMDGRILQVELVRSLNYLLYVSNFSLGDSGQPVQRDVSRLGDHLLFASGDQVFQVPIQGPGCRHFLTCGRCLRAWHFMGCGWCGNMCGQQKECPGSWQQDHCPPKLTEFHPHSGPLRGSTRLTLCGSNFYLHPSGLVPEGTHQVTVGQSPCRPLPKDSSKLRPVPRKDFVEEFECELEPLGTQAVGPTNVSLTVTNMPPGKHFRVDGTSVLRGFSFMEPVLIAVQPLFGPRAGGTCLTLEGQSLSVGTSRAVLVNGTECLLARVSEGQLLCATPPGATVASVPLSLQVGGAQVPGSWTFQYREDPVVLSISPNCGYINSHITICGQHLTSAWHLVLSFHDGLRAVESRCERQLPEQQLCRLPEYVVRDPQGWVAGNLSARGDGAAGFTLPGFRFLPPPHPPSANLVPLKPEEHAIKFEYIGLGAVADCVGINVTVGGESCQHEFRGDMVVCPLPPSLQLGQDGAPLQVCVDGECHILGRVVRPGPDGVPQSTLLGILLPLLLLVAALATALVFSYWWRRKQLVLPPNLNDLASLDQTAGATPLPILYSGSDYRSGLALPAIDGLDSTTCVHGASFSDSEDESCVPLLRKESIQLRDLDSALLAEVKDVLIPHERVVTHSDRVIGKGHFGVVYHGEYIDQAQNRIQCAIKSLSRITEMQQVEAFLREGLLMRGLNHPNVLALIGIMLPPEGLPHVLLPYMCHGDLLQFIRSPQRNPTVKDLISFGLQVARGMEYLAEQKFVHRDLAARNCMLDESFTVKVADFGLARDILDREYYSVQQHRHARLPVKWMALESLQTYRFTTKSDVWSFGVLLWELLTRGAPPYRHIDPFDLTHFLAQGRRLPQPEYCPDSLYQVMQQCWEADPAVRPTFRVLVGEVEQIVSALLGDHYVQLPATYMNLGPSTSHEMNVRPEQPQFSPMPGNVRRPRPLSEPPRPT
Method: as §1

| IC50 (MKN45 cells; Homo sapiens, MKN-45, 72 h) | IC50 (c-Met) | IC50 (phosphorylated c-MET) | IC50 (Ron) | IC50 (MKN45 cells) | SMILES |
| --- | --- | --- | --- | --- | --- |
| 100 to 1000 nM | ≤ 100 nM | ≤ 100 nM | ≤ 100 nM | – | CC(c1c(Cl)cccc1Cl)c1c[nH]c2ncc(-c3cnn(C4CCNCC4)c3)cc12 (centres unmarked) [Example 1, 3-[1-(2,6-Dichlorophenyl)ethyl]-5-(1-piperidin-4-yl-1H-pyrazol-4-yl)-1H-pyrrolo[2,3-b]pyridine] |
| ≤ 100 nM | ≤ 100 nM | ≤ 100 nM | ≤ 100 nM | – | CC(c1c(Cl)ccc(F)c1Cl)c1c[nH]c2ncc(-c3cnn(C4CCNCC4)c3)cc12 (centres unmarked) [Example 2, 3-[1-(2,6-Dichloro-3-fluorophenyl)ethyl]-5-(1-piperidin-4-yl-1H-pyrazol-4-yl)-1H-pyrrolo[2,3-b]pyridine] |
| – | ≤ 100 nM | – | 100 to 1000 nM | ≤ 100 nM | CC(c1c(Cl)ccc(F)c1Cl)c1c[nH]c2ncc(-c3cnn(C4CCN(C=O)CC4)c3)cc12 (centres unmarked) [Example 71, 4-(4-{3-[1-(2,6-Dichloro-3-fluorophenyl)ethyl]-1H-pyrrolo[2,3-b]pyridin-5-yl}-pyrazol-1-yl)-piperidine-1-carbaldehyde] |
| ≤ 100 nM | – | ≤ 100 nM | – | – | C[C@H](c1c(Cl)ccc(F)c1Cl)c1c[nH]c2ncc(-c3cnn(C4CCN(C(N)=O)CC4)c3)cc12 [Example 72, 4-(4-{3-[(S)-1-(2,6-Dichloro-3-fluorophenyl)ethyl]-1H-pyrrolo[2,3-b]pyridin-5-yl}-pyrazol-1-yl)-piperidine-1-carboxamide] |
| ≤ 100 nM | – | ≤ 100 nM | – | – | C[C@H](c1c(Cl)ccc(F)c1Cl)c1c[nH]c2ncc(-c3cnn(C4CCNCC4)c3)cc12 [Example 80, 3-[(S)-1-(2,6-Dichloro-3-fluorophenyl)ethyl]-5-(1-piperidin-4-yl-1H-pyrazol-4-yl)-1H-pyrrolo[2,3-b]pyridine] |
| 100 to 1000 nM | – | 100 to 1000 nM | – | – | C[C@@H](c1c(Cl)ccc(F)c1Cl)c1c[nH]c2ncc(-c3cnn(C4CCNCC4)c3)cc12 [Example 81, 3-[(R)-1-(2,6-Dichloro-3-fluorophenyl)ethyl]-5-(1-piperidin-4-yl-1H-pyrazol-4-yl)-1H-pyrrolo[2,3-b]pyridine] |
| ≤ 100 nM | – | ≤ 100 nM | – | – | CC(c1c(Cl)ccc(F)c1Cl)c1c[nH]c2ncc(-c3cnn(C4CCC(=O)CC4)c3)cc12 (centres unmarked) [Example 89, 4-(4-{3-[1-(2,6-Dichloro-3-fluorophenyl)ethyl]-1H-pyrrolo[2,3-b]pyridin-5-yl}-pyrazol-1-yl)cyclohexanone] |

Second part, the compound before the results:

| SMILES | IC50 (MKN45 cells; Homo sapiens, MKN-45, 72 h) | IC50 (c-Met) | IC50 (phosphorylated c-MET) | IC50 (Ron) | IC50 (MKN45 cells) |
| --- | --- | --- | --- | --- | --- |
| CC(c1c(Cl)ccc(F)c1Cl)c1c[nH]c2ncc(-c3cnn(C(C)(C)C(N)=O)c3)cc12 (centres unmarked) [Example 64, 2-(4-{3-[1-(2,6-Dichloro-3-fluorophenyl)ethyl]-1H-pyrrolo[2,3-b]pyridin-5-yl}-pyrazol-1-yl)-isobutyramide] | 100 to 1000 nM | – | ≤ 100 nM | – | – |
| CC(c1c(Cl)ccc(F)c1Cl)c1c[nH]c2ncc(-c3cnn(C(C)(C)CO)c3)cc12 (centres unmarked) [Example 65, 2-(4-{3-[1-(2,6-Dichloro-3-fluorophenyl)ethyl]-1H-pyrrolo[2,3-b]pyridin-5-yl}-pyrazol-1-yl)-2-methylpropan-1-ol] | 100 to 1000 nM | – | ≤ 100 nM | – | – |
| C[C@H](c1c(Cl)ccc(F)c1Cl)c1c[nH]c2ncc(C3=CCCN(C(N)=O)C3)cc12 [Example 67, 5-{3-[(S)-1-(2,6-Dichloro-3-fluorophenyl)ethyl]-1H-pyrrolo[2,3-b]pyridin-5-yl}-3,6-dihydro-2H-pyridine-1-carboxamide] | 100 to 1000 nM | – | ≤ 100 nM | – | – |
| C[C@H](c1c(Cl)ccc(F)c1Cl)c1c[nH]c2ncc(-c3ccc(C(=O)N4CCNCC4)cc3)cc12 [Example 69, (4-{3-[(S)-1-(2,6-Dichloro-3-fluorophenyl)ethyl]-1H-pyrrolo[2,3-b]pyridin-5-yl}phenyl)piperazin-1-ylmethanone] | 100 to 1000 nM | – | ≤ 100 nM | – | – |
| C[C@H](c1c(Cl)ccc(F)c1Cl)c1c[nH]c2ncc(-c3cnn(CCO)c3)cc12 [Example 70, 2-(4-{3-[(S)-1-(2,6-Dichloro-3-fluorophenyl)ethyl]-1H-pyrrolo[2,3-b]-pyridin-5-yl}pyrazol-1-yl)ethanol] | ≤ 100 nM | ≤ 100 nM | ≤ 100 nM | 1000 to 10000 nM | – |
| C[C@H](c1c(Cl)ccc(F)c1Cl)c1c[nH]c2ncc(-c3cnn(C4CCN(S(C)(=O)=O)CC4)c3)cc12 [Example 73, 3-[(S)-1-(2,6-Dichloro-3-fluorophenyl)ethyl]-5-[1-(1-methane-sulfonylpiperidin-4-yl)-1H-pyrazol-4-yl]-1H-pyrrolo[2,3-b]pyridine] | ≤ 100 nM | – | ≤ 100 nM | – | – |
| CNC(=O)Cn1cc(-c2cnc3[nH]cc([C@H](C)c4c(Cl)ccc(F)c4Cl)c3c2)cn1 [Example 76, 2-(4-{3-[(S)-1-(2,6-Dichloro-3-fluorophenyl)ethyl]-1H-pyrrolo[2,3-b]-pyridin-5-yl}-pyrazol-1-yl)-N-methylacetamide] | ≤ 100 nM | – | ≤ 100 nM | – | – |
| C[C@H](c1c(Cl)ccc(F)c1Cl)c1c[nH]c2ncc(-c3cnn(CC(N)=O)c3)cc12 [Example 77, 2-(4-{3-[(S)-1-(2,6-Dichloro-3-fluorophenyl)ethyl]-1H-pyrrolo[2,3-b]-pyridin-5-yl}-pyrazol-1-yl)-acetamide] | ≤ 100 nM | – | ≤ 100 nM | – | – |
| C[C@H](c1c(Cl)ccc(F)c1Cl)c1c[nH]c2ncc(-c3cnn(CC(=O)N4CCOCC4)c3)cc12 [Example 78, 2-(4-{3-[(S)-1-(2,6-Dichloro-3-fluorophenyl)ethyl]-1H-pyrrolo[2,3-b]pyridin-5-yl}-pyrazol-1-yl)-1-morpholin-4-ylethanone] | ≤ 100 nM | – | ≤ 100 nM | – | – |
| C[C@H](c1c(Cl)ccc(F)c1Cl)c1c[nH]c2ncc(-c3cnn(CC(=O)N4CCN(C)CC4)c3)cc12 [Example 79, 2-(4-{3-[(S)-1-(2,6-Dichloro-3-fluorophenyl)ethyl]-1H-pyrrolo[2,3-b]-pyridin-5-yl}-pyrazol-1-yl)-1-(4-methylpiperazin-1-yl)ethanone] | ≤ 100 nM | – | ≤ 100 nM | – | – |
| C[C@H](c1c(Cl)ccc(F)c1Cl)c1c[nH]c2ncc(-c3cnn(C(C)(C)CO)c3)cc12 [Example 85, 2-(4-{3-[(S)-1-(2,6-Dichloro-3-fluorophenyl)ethyl]-1H-pyrrolo[2,3-b]-pyridin-5-yl}-pyrazol-1-yl)-2-methylpropan-1-ol] | 100 to 1000 nM | – | ≤ 100 nM | – | – |
| CC(c1c(Cl)ccc(F)c1Cl)c1c[nH]c2ncc(-c3cccnc3)cc12 (centres unmarked) [Example 88, 3-[1-(2,6-Dichloro-3-fluorophenyl)ethyl]-5-pyridin-3-yl-1H-pyrrolo[2,3-b]pyridine] | 100 to 1000 nM | – | 100 to 1000 nM | – | – |
| C[C@H](c1c(Cl)ccc(F)c1Cl)c1c[nH]c2ncc(-c3cnn(C[C@H](O)CO)c3)cc12 [Example 90, (S)-3-(4-{3-[(S)-1-(2,6-Dichloro-3-fluorophenyl)ethyl]-1H-pyrrolo[2,3-b]pyridin-5-yl}-pyrazol-1-yl)-propane-1,2-diol] | ≤ 100 nM | – | ≤ 100 nM | – | – |
